# Assay results published in patent publication US20160002247A1, “8-SUBSTITUTED IMIDAZOPYRIMIDINONE DERIVATIVE HAVING AUTOTAXIN INHIBITORY ACTIVITY” (THE UNIVERSITY OF TOKYO, priority 2013, published 2016).
# Biological target: T1, Human autotaxin enzyme (Homo sapiens, UniProt Q13822)
# T1 construct: purchased R&D System
# Test: Evaluation of autotaxin inhibitor, Method B (Test Example 2): TG-mTMP fluorescence
# Type: biochemical
# Details: Assay Method B (Test Example 2), human autotaxin; read-out: Inhibitory Activity (autotaxin enzyme inhibitory activity, IC50 class)
# Experimental: (Method B) Evaluation of Autotaxin Inhibitor
# Solution A containing 25 mM Tris-HCl buffer (pH7.5), 100 mM NaCl, 5 mM MgCl2 and 0.1% BSA was prepared. Human autotaxin enzyme (purchased from R&D System) was diluted with Solution A, and 5 μL of which was added to a solution of test compound in DMSO. Furthermore, 5 μl of 0.5 μM TG-mTMP in Solution A was added and allowed to react at room temperature for 2 hours. 5 μl of 150 mM EDTA in Solution A was added to quench the reaction, and the fluorescent dye TokyoGreen, which was produced by the reaction, was detected. The fluorescence was detected using ViewLux (PerkinElmer, Inc.) with an excitation wavelength of 480 nm and a fluorescence wavelength of 540 nm.
row,Structure (SMILES),IC50
1,CCCCCn1c(N2CCN(CC(=O)N(C)C)CC2)cc(=O)n2cc(-c3ccc(Cl)cc3)nc12 [Compound 240],< 10 nM
2,COC(=O)c1ccc(Cn2c(C)cc(=O)n3cc(-c4ccc(Cl)cc4)nc23)cc1 [Compound 103],10 to 100 nM
3,CCCCCn1c(N2CCNCC2)cc(=O)n2cc(-c3ccc(Cl)cc3)nc12 [Compound 254],< 10 nM
4,CN(C)CCNC(=O)c1ccc(-c2cc(=O)n3cc(-c4ccc(C#N)cc4)nc3n2CCCCC#N)cc1 [Compound 384],< 10 nM
5,CCCCCn1c(N2CCN(CCN3CCOCC3)CC2)cc(=O)n2cc(-c3ccc(Cl)cc3)nc12 [Compound 191],< 10 nM
6,CCCCCn1c(OC23CCC(CC2)CC3)cc(=O)n2cc(-c3ccc(Cl)cc3)nc12 [Compound 267],100 to 1000 nM
7,CCCCCn1c(C)cc(=O)n2cc(-c3cc4ccccc4s3)nc12 [Compound 142],10 to 100 nM
8,Cc1cc(=O)n2cc(-c3ccc(Cl)cc3)nc2n1Cc1ccc(S(C)(=O)=O)cc1 [Compound 105],10 to 100 nM
9,N#CCCCCn1c(-c2ccc(C(=O)NCCN3CCOCC3)cc2)cc(=O)n2cc(-c3ccc(Cl)cc3)nc12 [Compound 380],< 10 nM
10,CCCCCn1c(C)cc(=O)n2cc(-c3cccc(Cl)c3)nc12 [Compound 147],> 1000 nM
11,CCCCCn1c(N2CCN(C)CC2)cc(=O)n2cc(-c3ccc(Cl)cc3)nc12 [Compound 232],< 10 nM
12,CCCCCn1c(N2CCC(C)C2)cc(=O)n2cc(-c3ccc(Cl)cc3)nc12 (centres unmarked) [Compound 257],< 10 nM
13,Cc1cc(=O)n2cc(-c3ccc(Cl)cc3)nc2n1Cc1ccc(Cl)cc1F [Compound 90],10 to 100 nM
14,CCCCCn1c(N2CCCC2CCCC)cc(=O)n2cc(-c3ccc(Cl)cc3)nc12 (centres unmarked) [Compound 277],10 to 100 nM
15,Cc1cc(=O)n2cc(-c3ccc(Cl)cc3)nc2n1Cc1ccc(C(F)(F)F)cc1 [Compound 116],100 to 1000 nM
16,COC(=O)Cc1ccc(Cn2c(C)cc(=O)n3cc(-c4ccc(Cl)cc4)nc23)cc1 [Compound 112],10 to 100 nM
17,Cc1cc(=O)n2cc(-c3ccc(Cl)cc3)nc2n1Cc1ccc(C(C)(C)C)cc1 [Compound 123],100 to 1000 nM
18,Cc1cc(=O)n2cc(-c3ccc(Cl)cc3)nc2n1C(C)c1cccc(F)c1 (centres unmarked) [Compound 100],10 to 100 nM
19,CCCCCn1c(C)cc(=O)n2cc(-c3ccc(C)cc3C)nc12 [Compound 154],10 to 100 nM

row,Structure (SMILES),IC50
1,CCCCCn1c(N(CCO)CCO)cc(=O)n2cc(-c3ccc(Cl)cc3)nc12 [Compound 253],10 to 100 nM
2,CCCCCn1c(C)cc(=O)n2cc(-c3ccccc3F)nc12 [Compound 163],100 to 1000 nM
3,CCCCCn1c(C)c(CCC(=O)OCC)c(=O)n2cc(-c3cccc(Cl)c3)nc12 [Compound 210],100 to 1000 nM
4,CCCCCn1c(C)cc(=O)n2c(C)c(-c3ccc(Cl)cc3)nc12 [Compound 170],10 to 100 nM
5,CCCCCn1c(N2CCCC2)cc(=O)n2cc(-c3ccc(Cl)cc3)nc12 [Compound 187],10 to 100 nM
6,Cc1cc(=O)n2cc(-c3ccc(Cl)cc3)nc2n1Cc1ccc(C(=O)O)cc1 [Compound 99],100 to 1000 nM
7,N#CCCCCn1c(-c2ccc(C(=O)NCCN3CCOCC3)cc2)cc(=O)n2cc(-c3ccc(C#N)cc3)nc12 [Compound 386],< 10 nM
8,Cc1cc(=O)n2cc(-c3ccc(Cl)cc3)nc2n1Cc1ccc(C(N)=O)cc1 [Compound 110],10 to 100 nM
9,CCCCCn1c(N2CCC[C@@H]2C)cc(=O)n2cc(-c3ccc(Cl)cc3)nc12 [Compound 258],10 to 100 nM
10,Cc1cc(=O)n2cc(-c3ccc(Cl)cc3)nc2n1Cc1cccc(F)c1 [Compound 121],10 to 100 nM
11,"CCCCCn1c(C)cc(=O)n2c(C=O)c(-c3ccc(Cl)cc3)nc12 [Compound 167, 2-(4-chlorophenyl)-7-methyl-5-oxo-8-pentyl-5,8-dihydroimidazo[1,2-a]pyrimidine-3-carbaldehyde]",100 to 1000 nM
12,CCCc1cn2c(=O)ccn(CCCc3ccc(Cl)cc3)c2n1 [Compound 129],> 1000 nM
13,"CCCCCn1c(C)cc(=O)n2c(CO)c(-c3ccc(Cl)cc3)nc12 [Compound 168, 2-(4-chlorophenyl)-3-hydroxymethyl-7-methyl-8-pentylimidazo[1,2-a]pyrimidin-5(8H)-one]",100 to 1000 nM
14,CCCCCn1c(C)cc(=O)n2cc(-c3ccc(OC(F)F)cc3)nc12 [Compound 155],10 to 100 nM
15,CCCCCn1c(C)cc(=O)n2cc(-c3coc4ccccc34)nc12 [Compound 140],100 to 1000 nM
16,CCCCCn1c(C)cc(=O)n2cc(-c3ccc4c(c3)CCO4)nc12 [Compound 149],100 to 1000 nM
17,CCCCCn1c(NC2CCCC2)cc(=O)n2cc(-c3ccc(Cl)cc3)nc12 [Compound 224],10 to 100 nM
18,Cc1cc(=O)n2cc(-c3ccc(Cl)cc3)nc2n1Cc1cccnc1 [Compound 117],10 to 100 nM

# Next, values leading:
row,IC50,Structure (SMILES)
1,10 to 100 nM,C/C=C/c1cc(=O)n2cc(-c3ccc(Cl)cc3)nc2n1CCCCC [Compound 414]
2,10 to 100 nM,COCCCCn1c(C)cc(=O)n2cc(-c3ccc(Cl)cc3)nc12 [Compound 124]
3,10 to 100 nM,CCCCCn1c(NCc2cccn2C)cc(=O)n2cc(-c3ccc(Cl)cc3)nc12 [Compound 228]
4,10 to 100 nM,CCCCCn1c(C)c(C#CCO)c(=O)n2cc(-c3ccc(Cl)cc3)nc12 [Compound 183]
5,10 to 100 nM,CCCCCn1c(C(=O)O)cc(=O)n2cc(-c3ccc(Cl)cc3)nc12 [Compound 372]
6,100 to 1000 nM,CCCCCn1c(C)c(CCO)c(=O)n2cc(-c3cccc(Cl)c3)nc12 [Compound 213]
7,10 to 100 nM,CCCCCn1c(OC(C)C)cc(=O)n2cc(-c3ccc(Cl)cc3)nc12 [Compound 272]
8,100 to 1000 nM,CCCCCn1c(OC(C)c2ccccc2)cc(=O)n2cc(-c3ccc(Cl)cc3)nc12 (centres unmarked) [Compound 261]
9,< 10 nM,CCCCCn1c(N(C)CCC)cc(=O)n2cc(-c3ccc(Cl)cc3)nc12 [Compound 230]
10,100 to 1000 nM,CCCCCOC(=O)CCc1c(C)n(CCCCC)c2nc(-c3ccc(Cl)cc3)cn2c1=O [Compound 217]
11,10 to 100 nM,CCCCCn1c(NCCc2ccccc2)cc(=O)n2cc(-c3ccc(Cl)cc3)nc12 [Compound 251]
12,< 10 nM,CCCCCn1c(-c2ccc(COC)cc2)cc(=O)n2cc(-c3ccc(Cl)cc3)nc12 [Compound 404]
13,> 1000 nM,CCCCCn1c(C)c(F)c(=O)n2cc(-c3cccc(Cl)c3)nc12 [Compound 212]
14,10 to 100 nM,CCCCCn1c(NCc2nccs2)cc(=O)n2cc(-c3ccc(Cl)cc3)nc12 [Compound 233]
15,< 10 nM,CCCCCn1c(C)c(CCC(=O)O)c(=O)n2cc(-c3ccc(Cl)cc3)nc12 [Compound 180]
16,10 to 100 nM,CCCCCn1c(/C=C/c2ccccc2)cc(=O)n2cc(-c3ccc(Cl)cc3)nc12 [Compound 398]
17,10 to 100 nM,CCCCCn1c(NCc2ccccn2)cc(=O)n2cc(-c3ccc(Cl)cc3)nc12 [Compound 229]
18,10 to 100 nM,CCCCCn1c(NCc2ccc(OC)cc2)cc(=O)n2cc(-c3ccc(Cl)cc3)nc12 [Compound 226]
19,< 10 nM,CCCCCn1c(-c2ccc(NCC(C)C)nc2)cc(=O)n2cc(-c3ccc(Cl)cc3)nc12 [Compound 419]
20,> 1000 nM,CCCCCn1c(C)c(-c2ccccc2)c(=O)n2cc(-c3ccc(Cl)cc3)nc12 [Compound 182]
21,> 1000 nM,CCCCCn1c(C)cc(=O)n2cc(-c3ccc4ccccc4c3)nc12 [Compound 153]
22,< 10 nM,CCCCCn1c(N2CC(O)C2)cc(=O)n2cc(-c3ccc(Cl)cc3)nc12 [Compound 274]
23,10 to 100 nM,CCCCCn1c(-c2ccccc2)cc(=O)n2cc(-c3ccc(Cl)cc3)nc12 [Compound 366]
24,10 to 100 nM,CCCCCn1c(COCc2ccccc2)cc(=O)n2cc(-c3ccc(Cl)cc3)nc12 [Compound 371]
25,100 to 1000 nM,CCCCCn1c(C)c(CCCC)c(=O)n2cc(-c3ccc(Cl)cc3)nc12 [Compound 204]
26,> 1000 nM,CCCCCn1c(Oc2ccc(-c3ccccc3)cc2)cc(=O)n2cc(-c3ccc(Cl)cc3)nc12 [Compound 265]
27,10 to 100 nM,CCCCCn1c(NCCN(C)C)cc(=O)n2cc(-c3ccc(Cl)cc3)nc12 [Compound 235]

# Same assay, conditions: Assay Method: Method B (Test Example 2); read-out: Inhibitory Activity (Enzyme Inhibitory Activity, IC50)
row,Structure (SMILES),IC50
1,Cc1cc(=O)n2cc(-c3ccc(Cl)cc3)nc2n1CC(C)C [Compound 78],10 to 100 nM
2,Cc1cc(=O)n2cc(-c3ccc(Cl)cc3)nc2n1CCC(F)(F)F [Compound 65],100 to 1000 nM
3,CCN(CC)C(=O)Cn1c(C)cc(=O)n2cc(-c3ccc(Cl)cc3)nc12 [Compound 62],100 to 1000 nM
4,Cc1cc(=O)n2cc(-c3ccc(Cl)cc3)nc2n1C1CCC1 [Compound 83],10 to 100 nM
5,Cc1cc(=O)n2cc(-c3ccc(Cl)cc3)nc2n1CC(=O)C1CC1 [Compound 50],100 to 1000 nM
6,Cc1cc(=O)n2cc(-c3ccc(Cl)cc3)nc2n1CC(=O)C1CCCCC1 [Compound 69],> 1000 nM
7,CCC/C=C/n1c(C)cc(=O)n2cc(-c3ccc(Cl)cc3)nc12 [Compound 44],10 to 100 nM
8,Cc1cc(=O)n2cc(-c3ccc(Cl)cc3)nc2n1CCC(F)=C(F)F [Compound 55],10 to 100 nM
9,Cc1ccc(Cn2c(C)cc(=O)n3cc(-c4ccc(Cl)cc4)nc23)cc1 [Compound 67],10 to 100 nM
10,Cc1cc(=O)n2cc(-c3ccc(Cl)cc3)nc2n1C(C)C(=O)OC(C)(C)C (centres unmarked) [Compound 74],100 to 1000 nM

# Continued, values first:
row,IC50,Structure (SMILES)
1,10 to 100 nM,CCCCn1c(C)cc(=O)n2cc(-c3ccc(Cl)cc3)nc12 [Compound 7]
2,10 to 100 nM,Cc1cc(=O)n2cc(-c3ccc(Cl)cc3)nc2n1Cc1ccccc1F [Compound 53]

# Same assay, conditions: Inhibitory Activity (autotaxin enzyme inhibitory activity, IC50 class), Assay Method B (Test Example 2), human autotaxin
row,Structure (SMILES),IC50
1,CCCCCn1c(NC2C[C@@H]3CC[C@H]2C3)cc(=O)n2cc(-c3ccc(Cl)cc3)nc12 (some centres unmarked) [Compound 252],10 to 100 nM
